Source: PMC6442109, “Novel thienopyrimidine derivatives as dual EGFR and VEGFR-2 inhibitors: design, synthesis, anticancer activity and effect on cell cycle profile” (Journal of Enzyme Inhibition and Medicinal Chemistry, 2019)
Where two headings read alike, the source gives them in different places.

Experiments:
MCF-7 cell line = assay: MTT anticancer activity assay against MCF-7; conditions: for IC50: Homo sapiens, MCF7, 48 h, read-out: IC50 on MCF-7 cell line
[1] = biological target: T1, recombinant human VEGFR-2/KDR (Homo sapiens, UniProt P35968); assay: In vitro VEGFR-2 kinase inhibitory assay (ELISA kit); format: biochemical; conditions: mean of three experiments ± SD
T1 construct: purchased #7788
Protocol: About 10 µL of 10 mM ATP was added to 1.25 mL 6 µM substrate peptide followed by dilution of the mixture with distilled water to 2.50 mL to make 2× ATP/substrate cocktail ([ATP] = 40 µM, [substrate] = 3 µm). The enzyme was immediately transferred from –80 °C to ice and was allowed to thaw on ice. Microcentrifuge was performed briefly at 4 °C and returned immediately to ice. […] About 0.6 mL of DTT/Kinase buffer was transferred to each enzyme tube to make 4× reaction mixture. […] About 25 µL of 2× ATP/substrate cocktail was added to 25 µL/well pre-incubated reaction mixture/compound. Reaction plate was incubated at room temperature for 30 min. Then, 50 µL/well stop buffer (50 mM EDTA, pH 8) was added to stop the reaction. […] About 100 µL/well primary antibody was added and incubated at room temperature for 60 min followed by washing three times with 200 µL/well PBS/T.
Appropriate dilution of HRP labeled secondary antibody in PBS/T was prepared with 1% BSA (1:500 dilution for anti-mouse IgG or 1:1000 for anti-rabbit IgG). About 100 µL/well secondary antibody solution was added and incubated at room temperature for 30 min then washed five times with 200 µL/well PBS/T followed by addition of 100 µL/well 3,3′,5,5′-tetramethylbenzidine (TMB) substrate and incubation at room temperature for 15 min and finally addition of 100 µL/well of stop solution and mix well. The absorbance was read at 450 nm with a microtiter plate reader. The values of % activity versus a series of compound concentrations (0.01 µM–0.1 µM–1 µM–10 µM) was then plotted using non-linear regression analysis of sigmoidal dose-response curve.

EGFR [2] = biological target: T2, EGFR (Homo sapiens, UniProt P00533); assay: In vitro EGFR kinase inhibitory assay (Kinase-Glo luminescence kit)
[3] = system: MCF-10A (the human mammary epithelial cell line); assay: MTT cytotoxicity on normal mammary epithelial cell line; conditions: for IC50: Homo sapiens, MCF-10A, read-out: IC50 on normal mammary epithelial cell line (MCF-10A); for Selectivity index: MCF-10A versus MCF-7 tumor cell line
MCF-7 cells [4] = assay: Cell cycle analysis, propidium iodide flow cytometry; format: cell-based, human; conditions: 24 h
Protocol: Cell cycle were carried out using propidium iodide flow cytometry kit (Abcam, ab139418) according to the manufacturer’s instructions. The MCF-7 cells were treated with 0.66 µM of compound 5f for 24 h. Then, the cells were washed twice with ice-cold PBS, centrifuged and fixed using ice-cold 66% (v/v) ethanol, washed with PBS, re-suspended with 0.1 mg/mL RNase and stained with 200 µL propidium iodide (PI). Finally, cells were analyzed by flow cytometry. The cell cycle distributions were calculated using Cell-Quest software (Becton Dickinson). An interference with the normal cell cycle distribution resulted upon exposure of MCF-7 cells to this compound as indicated.

MCF-7 cells [5] = assay: Annexin V-FITC/PI apoptosis detection; format: cell-based, human; conditions: MCF-7, 0.66 µM, 24 h
Protocol: Apoptosis was evaluated utilizing Annexin V-FITC/PI apoptosis detection kit (Biovision, Mountain View, CA #K101-25) according to the manufacturer’s instructions after staining the cells with Annexin V fluorescein isothiocyanate (FITC) and counterstaining with propidium iodide (PI).
The cells then were centrifuged and in case of adherent cells, cells were gently trypsinized and washed once with serum-containing media followed by resuspension in 500 µL of binding buffer. About 5 µL of Annexin V-FITC and 5 µL of (PI […]) were added and incubated at room temperature for 5 min in the dark. Analyses were carried out using flow cytometer (Ex = 488 nm; Em = 530 nm) using FITC signal detector (usually FL1) and PI staining by the phycoerythrin emission signal detector (usually FL2).

EGFR [6] = biological target: T2, EGFR; conditions: Figure 1 compounds I–VII; cited from earlier work
VEGFR-2 = conditions: Figure 1 compounds I–VII; cited from earlier work

T1 sequence (P35968 20-1356): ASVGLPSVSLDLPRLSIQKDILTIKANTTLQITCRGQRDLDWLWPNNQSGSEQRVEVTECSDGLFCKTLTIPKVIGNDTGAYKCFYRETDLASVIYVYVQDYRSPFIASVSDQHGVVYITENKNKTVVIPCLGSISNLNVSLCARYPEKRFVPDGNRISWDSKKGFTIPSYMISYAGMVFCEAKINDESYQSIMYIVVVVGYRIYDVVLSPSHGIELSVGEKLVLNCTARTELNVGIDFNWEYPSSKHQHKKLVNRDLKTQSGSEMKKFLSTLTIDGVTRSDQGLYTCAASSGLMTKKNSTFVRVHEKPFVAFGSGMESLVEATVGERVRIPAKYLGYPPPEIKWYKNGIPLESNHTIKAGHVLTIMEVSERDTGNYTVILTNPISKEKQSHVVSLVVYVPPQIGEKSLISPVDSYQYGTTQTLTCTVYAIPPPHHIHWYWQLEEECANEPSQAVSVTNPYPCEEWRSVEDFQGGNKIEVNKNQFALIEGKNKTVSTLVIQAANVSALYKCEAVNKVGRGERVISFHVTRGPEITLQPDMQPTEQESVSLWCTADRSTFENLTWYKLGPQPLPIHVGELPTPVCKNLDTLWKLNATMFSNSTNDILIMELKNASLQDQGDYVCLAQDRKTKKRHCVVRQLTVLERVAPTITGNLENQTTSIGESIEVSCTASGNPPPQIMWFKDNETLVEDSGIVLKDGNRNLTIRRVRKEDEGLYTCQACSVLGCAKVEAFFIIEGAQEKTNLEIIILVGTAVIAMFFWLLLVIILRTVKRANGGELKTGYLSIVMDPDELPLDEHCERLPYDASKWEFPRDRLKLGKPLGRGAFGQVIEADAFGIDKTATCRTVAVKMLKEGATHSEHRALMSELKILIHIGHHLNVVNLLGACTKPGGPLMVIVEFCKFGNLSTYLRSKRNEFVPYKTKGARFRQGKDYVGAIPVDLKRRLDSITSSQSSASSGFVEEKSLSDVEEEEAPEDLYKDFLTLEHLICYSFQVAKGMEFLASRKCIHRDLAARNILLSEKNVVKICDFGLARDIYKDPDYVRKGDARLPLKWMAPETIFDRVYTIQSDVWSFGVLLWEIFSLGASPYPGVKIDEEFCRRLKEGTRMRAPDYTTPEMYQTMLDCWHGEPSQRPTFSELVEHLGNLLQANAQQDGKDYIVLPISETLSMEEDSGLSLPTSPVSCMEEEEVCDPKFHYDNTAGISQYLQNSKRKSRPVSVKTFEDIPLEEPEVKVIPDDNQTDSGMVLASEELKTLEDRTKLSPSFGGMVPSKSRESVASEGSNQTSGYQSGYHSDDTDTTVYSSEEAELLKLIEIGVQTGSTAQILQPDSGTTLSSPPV
T2 sequence (P00533 25-1210): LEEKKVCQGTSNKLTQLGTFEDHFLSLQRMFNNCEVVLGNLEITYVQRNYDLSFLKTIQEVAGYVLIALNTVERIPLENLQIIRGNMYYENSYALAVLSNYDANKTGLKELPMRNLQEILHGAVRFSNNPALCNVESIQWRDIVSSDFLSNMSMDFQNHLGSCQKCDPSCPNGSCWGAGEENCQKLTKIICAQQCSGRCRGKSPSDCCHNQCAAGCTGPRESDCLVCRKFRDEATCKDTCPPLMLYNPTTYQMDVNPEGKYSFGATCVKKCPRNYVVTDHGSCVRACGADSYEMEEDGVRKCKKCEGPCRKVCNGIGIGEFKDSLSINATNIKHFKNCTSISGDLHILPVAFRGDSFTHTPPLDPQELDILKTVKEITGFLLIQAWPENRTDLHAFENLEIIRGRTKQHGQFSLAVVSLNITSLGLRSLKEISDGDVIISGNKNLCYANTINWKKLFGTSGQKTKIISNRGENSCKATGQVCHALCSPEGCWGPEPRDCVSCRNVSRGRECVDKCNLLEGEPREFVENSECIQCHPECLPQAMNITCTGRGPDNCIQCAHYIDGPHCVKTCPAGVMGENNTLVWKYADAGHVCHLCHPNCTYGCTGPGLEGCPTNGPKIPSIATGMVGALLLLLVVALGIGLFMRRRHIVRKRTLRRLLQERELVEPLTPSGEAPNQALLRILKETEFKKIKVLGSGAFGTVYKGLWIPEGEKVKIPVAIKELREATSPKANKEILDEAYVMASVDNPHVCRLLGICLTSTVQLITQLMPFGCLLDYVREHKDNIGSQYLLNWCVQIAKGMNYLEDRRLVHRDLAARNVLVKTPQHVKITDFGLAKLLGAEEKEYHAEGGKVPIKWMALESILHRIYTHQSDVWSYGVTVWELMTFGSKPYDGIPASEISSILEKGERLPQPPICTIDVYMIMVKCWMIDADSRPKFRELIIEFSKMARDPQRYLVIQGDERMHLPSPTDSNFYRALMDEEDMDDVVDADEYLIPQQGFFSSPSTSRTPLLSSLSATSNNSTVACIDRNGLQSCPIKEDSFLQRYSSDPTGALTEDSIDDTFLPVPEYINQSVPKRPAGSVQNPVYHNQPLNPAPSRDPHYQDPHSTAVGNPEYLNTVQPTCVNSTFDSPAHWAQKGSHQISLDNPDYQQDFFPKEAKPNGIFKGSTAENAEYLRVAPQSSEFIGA

SMILES | melting point [°C] | IC50 (MCF-7 cell line) [µM] | IC50 (EGFR [2]) [µM] | other results
NS(=O)(=O)c1ccc(Nc2ncnc3sc4c(c23)CCCCC4)cc1 [Compound 4a, 4-((6,7,8,9-Tetrahydro-5H-cyclohepta[4,5]thieno[2,3-d]pyrimidin-4-yl)amino)benzenesulfonamide] | 271 to 272 | 39.8 ± 4.11 | – | –
O=S(=O)(Nc1ncccn1)c1ccc(Nc2ncnc3sc4c(c23)CCCCC4)cc1 [Compound 4b, N-(Pyrimidin-2-yl)-4-((6,7,8,9-tetrahydro-5H-cyclohepta[4,5]thieno[2,3-d]pyrimidin-4-yl)amino)benzenesulfonamide] | 243 to 245 | 7.12 ± 0.55 | – | –
Cc1ccnc(NS(=O)(=O)c2ccc(Nc3ncnc4sc5c(c34)CCCCC5)cc2)n1 [Compound 4c, N-(4-Methylpyrimidin-2-yl)-4-((6,7,8,9-tetrahydro-5H-cyclohepta[4,5]thieno[2,3-d]pyrimidin-4-yl)amino)benzenesulfonamide] | 260 to 262 | 11 ± 1.24 | – | –
COc1cccc2c1C(=O)c1c(O)c3c(c(O)c1C2=O)C[C@@](O)(C(=O)CO)C[C@@H]3O[C@H]1C[C@H](N)[C@H](O)[C@H](C)O1 [Doxorubicin, reference compound] | – | 3.06 ± 0.19 | – | IC50 [3]: 27.6 ± 1.55 µM
C#Cc1cccc(Nc2ncnc3cc(OCCOC)c(OCCOC)cc23)c1 [Erlotinib, reference compound] | – | 1.14 ± 0.05 | – | IC50 [3]: 69.4 ± 4.24 µM
CCOC(=O)Nc1ccc(Nc2ncnc3cc(OC)c(OC)cc23)cc1Cl [III] | – | – | – | IC50 (EGFR [6]): 0.9 µM
COC(=O)Nc1ccc(Nc2ncnc3cc(OC)c(OC)cc23)cc1 [II] | – | – | – | IC50 (VEGFR-2): 5.8 µM
COc1cc2nc(Cl)nc(Nc3ccc(S(=O)(=O)Nc4nccs4)cc3)c2cc1OC [IV] | – | – | – | IC50 (VEGFR-2): 7.79 µM
COc1cc2ncnc(Nc3ccc(Br)cc3F)c2cc1OC [I] | – | – | – | IC50 (VEGFR-2): 1.65 µM
O=C(Nc1cccc(Br)c1)Nc1ccc(Oc2ncnc3sc4c(c23)CCCC4)cc1Cl [VII] | – | – | – | IC50 (VEGFR-2): 0.015 µM
COc1cc2nc(Cl)nc(Nc3ccc(C(N)=O)cc3)c2cc1OC [VI] | – | – | – | IC50 (VEGFR-2): 1.17 µM
COc1cc2nc(Cl)nc(Nc3ccc(S(N)(=O)=O)cc3)c2cc1OC [V] | – | – | – | IC50 (VEGFR-2): 1.02 µM

The next lines start with results.

melting point [°C] | IC50 (MCF-7 cell line) [µM] | IC50 (EGFR [2]) [µM] | SMILES | other results
179 to 180 | 1.98 ± 0.21 | 0.07 ± 0.003 | Nc1cccc(Oc2ncnc3sc4c(c23)CCCCC4)c1 [Compound 5a, 3-((6,7,8,9-Tetrahydro-5H-cyclohepta[4,5]thieno[2,3-d]pyrimidin-4-yl)oxy)aniline] | IC50 [1]: 1.71 ± 0.062 µM
> 300 | 1.47 ± 0.11 | 0.042 ± 0.002 | Nc1ccc(Oc2ncnc3sc4c(c23)CCCCC4)cc1 [Compound 5b, 4-((6,7,8,9-Tetrahydro-5H-cyclohepta[4,5]thieno[2,3-d]pyrimidin-4-yl)oxy)aniline] | IC50 [1]: 0.51 ± 0.016 µM; IC50 [3]: 72.7 ± 3.98 µM; Selectivity index [3]: 49.5; folds more potent than lapatinib, EGFR inhibitory activity (EGFR [2]): 1.24 folds
135 to 136 | 6.65 ± 0.41 | – | Brc1ccc(Oc2ncnc3sc4c(c23)CCCCC4)cc1 [Compound 5c, 4-(4-Bromophenoxy)-6,7,8,9-tetrahydro-5H-cyclohepta[4,5]thieno[2,3-d]pyrimidine] | –
> 300 | 1.34 ± 0.07 | 0.07 ± 0.004 | Clc1ccccc1Oc1ncnc2sc3c(c12)CCCCC3 [Compound 5d, 4-(2-Chlorophenoxy)-6,7,8,9-tetrahydro-5H-cyclohepta[4,5]thieno[2,3-d]pyrimidine] | IC50 [1]: 0.74 ± 0.025 µM
115 to 116 | 2.76 ± 0.33 | 0.069 ± 0.003 | Clc1ccc(Oc2ncnc3sc4c(c23)CCCCC4)cc1 [Compound 5e, 4-(4-Chlorophenoxy)-6,7,8,9-tetrahydro-5H-cyclohepta[4,5]thieno[2,3-d]pyrimidine] | IC50 [1]: 0.34 ± 0.013 µM
– | 0.66 ± 0.05 | 0.028 ± 0.003 | Cc1cc(Oc2ncnc3sc4c(c23)CCCCC4)ccc1Cl [Compound 5f, 4-(4-Chloro-3-methylphenoxy)-6,7,8,9-tetrahydro-5H-cyclohepta[4,5]thieno[2,3-d]pyrimidine] | IC50 [1]: 1.23 ± 0.028 µM; %G0–G1 (MCF-7 cells [4]; MCF-7, 0.66 µM): 34.19%; %G2/M (MCF-7 cells [4]; MCF-7, 0.66 µM): 32.65%; %Pre-G1 (MCF-7 cells [4]; MCF-7, 0.66 µM): 17.58%; %S (MCF-7 cells [4]; MCF-7, 0.66 µM): 33.16%; increase in percentage of cells at G2/M phase compared to control (MCF-7 cells [4]; MCF-7, IC50 concentration): 4.75 folds; increase in percentage of cells at pre-G1 phase compared to control (MCF-7 cells [4]; MCF-7, IC50 concentration): 11.80 folds; Apoptosis %Total (MCF-7 cells [5]): 17.58%; increase in annexin-V positive cells (early apoptosis) more than control (MCF-7 cells [5]): 6.07 folds; increase in late apoptotic cells more than control (MCF-7 cells [5]): about 24.66 folds; increase in necrotic cells more than control (MCF-7 cells [5]): ~12.48 folds; Apoptosis %Early (MCF-7 cells [5]; lower right quadrant): 5.34%; Necrosis (MCF-7 cells [5]; upper left quadrant): 2.87%; Apoptosis %Late (MCF-7 cells [5]; upper right quadrant): 9.37%; folds more potent than doxorubicin, anticancer activity (MCF-7 cell line; MCF-7): 4.64 folds; folds more potent than erlotinib, anticancer activity (MCF-7 cell line; MCF-7): 1.73 folds; IC50 [3]: 153 ± 7.57 µM; Selectivity index [3]: 232.1; folds more potent than erlotinib, EGFR inhibitory activity (EGFR [2]): 1.18 folds
> 300 | 1.23 ± 0.04 | 0.2 ± 0.011 | Fc1ccc(Oc2ncnc3sc4c(c23)CCCCC4)cc1 [Compound 5g, 4-(4-Fluorophenoxy)-6,7,8,9-tetrahydro-5H-cyclohepta[4,5]thieno[2,3-d]pyrimidine] | –
> 300 | 87.4 ± 5.4 | – | Cc1ccccc1Oc1ncnc2sc3c(c12)CCCCC3 [Compound 5h, 4-(o-Tolyloxy)-6,7,8,9-tetrahydro-5H-cyclohepta[4,5]thieno[2,3-d]pyrimidine] | –
> 300 | 21.1 ± 2.7 | – | Cc1ccc(Oc2ncnc3sc4c(c23)CCCCC4)cc1 [Compound 5i, 4-(p-Tolyloxy)-6,7,8,9-tetrahydro-5H-cyclohepta[4,5]thieno[2,3-d]pyrimidine] | –
> 300 | 5.01 ± 0.31 | – | COc1ccc(Oc2ncnc3sc4c(c23)CCCCC4)cc1 [Compound 5j, 4-(4-Methoxyphenoxy)-6,7,8,9-tetrahydro-5H-cyclohepta[4,5]thieno[2,3-d]pyrimidine] | –
166 to 169 | 2.76 ± 0.19 | 0.46 ± 0.018 | O=[N+]([O-])c1ccc(Oc2ncnc3sc4c(c23)CCCCC4)cc1 [Compound 5k, 4-(4-Nitrophenoxy)-6,7,8,9-tetrahydro-5H-cyclohepta[4,5]thieno[2,3-d]pyrimidine] | –
